Results reported in publication PMC4376724, “Differential Phenotypic and Functional Profiles of TcCA-2 -Specific Cytotoxic CD8^+ T Cells in the Asymptomatic versus Cardiac Phase in Chagasic Patients” (PLoS ONE, 2015).

Tested on: PBMC from HLA-A*02:01 Chagas disease patients and healthy donors
Assay: Cytokine secretion test (Bio-Plex multiplex immunoassay) in PBMC supernatants
Type: cell-based, human
Conditions: 1 μM peptide, 30 h; for IFNγ / IL6 / TNFα: non-peptide control subtracted
Protocol: For the screening of the recognition of TcCA-2 epitopes by Chagas disease patients, 10 HLA-A*02:01 adult patients in the asymptomatic phase of the disease (IND) were enrolled. For cytotoxicity, functional activity determinations and phenotypic characterization another group of 19 HLA-A*02:01 adults Chagas disease patients and 9 healthy donors were analyzed. These patients were at the chronic stage of the disease and were considered to be at the asymptomatic phase (IND, n = 8) if there was no evidence of having cardiac or gastrointestinal disorders. Chronic Chagas cardiomyopathy patients (CCC, n = 11) were stratified into G1 to G3 stages following Kuschnir classification according to clinical criteria and radiological, electrocardiographic and echocardiography analyses. The number of patients was the one recommended by the Hospital Ethical Committee. […] The patients were enrolled in both studies (functional and phenotypic characterization, IND n = 6 and CCC n = 7) when the available number of purified PBMC (limited by the cellular number isolated from each subject) was enough for both analyses. Another four CCC patients had to be enrolled to perform the phenotypic analysis in order to reach statistical significance.
Cytokine secretion (IL-4, IL-10, IL-6, IFN-γ, TNF-α) was determined in the supernatants of PBMC from Chagas disease patients and healthy donors, after in vitro stimulation with 1 μM of each peptide for 30 h at 37°C in RPMI supplemented with 10% iFBS as explained before. The secretion profile was determined by using a bead-based multiplex immunoassay system (Bio-Plex, Bio-Rad), following the manufacturer's instructions. The response was considered positive if an increase in the secretion of cytokines was at least three folds higher than the secretion by un-stimulated cells (basal secretion level) and at least, 4 pg/mL for IL-4, 2 pg/mL for IL-10, 15 pg/mL for IL-6 and 5 pg/mL for IFN-γ and TNF-α. The positive control consisted of 50 ng/mL Phorbol 12 myristate 13-acetate (PMA) and 500 ng/mL ionomycin (Sigma). Cytokine levels were quantified in each sample by using the Bio-Plex Manager software 4.1 (Bio-Rad).
Functional analysis of the epitope-specific CD8^+ T cells was carried out by the determination of the secretion profile of IFN-γ, TNF-α, IL-4, IL10 and IL-6 cytokines. […] CD8^+ T cells from 2 out of 11 patients responded to stimulation with peptide TcCA-2_273-281 by secreting IL-6. […] There was no secretion of IL-4 and IL-10 in PBMC after stimulation with any one of the four TcCA-2 peptides (data not shown). IFN-γ, TNF-α and IL6 cytokines secretion levels were higher in patients at the asymptomatic phase of the disease than in Chagas patients with associated cardiomyopathy.

## TVFDASRSTV [TcCA-2_442-451]
PBMC of Chagas patients, positive = at least three folds non-peptide control and ≥15 pg/mL IL-6, ≥5 pg/mL IFN-γ and TNF-α
  Patients whose cells recognized the peptide by secreting IFN-γ, TNF-α and IL-6: 2 out of 14
PBMC of Chagas patients, same positivity criteria
  Patients whose cells recognized the peptide by secreting TNF-α and IL-6: 2 out of 14
PBMC of patient CCC I 456
  IFNγ: 4 pg/mL
  IL6: 46 pg/mL
  TNFα: 6 pg/mL
PBMC of patient CCC I 770
  IFNγ: -2 pg/mL
  IL6: 3 pg/mL
  TNFα: -11 pg/mL
PBMC of patient CCC I 861
  IFNγ: 0 pg/mL
  IL6: -4 pg/mL
  TNFα: -3 pg/mL
PBMC of patient CCC I 884
  IFNγ: 0 pg/mL
  IL6: 0 pg/mL
  TNFα: 0 pg/mL
PBMC of patient CCC II 142
  IFNγ: 2 pg/mL
  IL6: -3 pg/mL
  TNFα: -20 pg/mL
PBMC of patient CCC III 509
  IFNγ: 0 pg/mL
  IL6: -4 pg/mL
  TNFα: -5 pg/mL
PBMC of patient CCC III 797
  IFNγ: 3 pg/mL
  IL6: 31 pg/mL
  TNFα: 7 pg/mL
PBMC of patient IND 265
  IFNγ: 204 pg/mL
  IL6: 1641 pg/mL
  TNFα: 160 pg/mL
PBMC of patient IND 283
  IFNγ: 12 pg/mL
  IL6: 80 pg/mL
  TNFα: 35 pg/mL
PBMC of patient IND 365
  IFNγ: 0 pg/mL
  IL6: 7 pg/mL
  TNFα: 15 pg/mL
PBMC of patient IND 388
  IFNγ: 1 pg/mL
  IL6: 21 pg/mL
  TNFα: -10 pg/mL
PBMC of patient IND 510
  IFNγ: 0 pg/mL
  IL6: 1 pg/mL
  TNFα: 1 pg/mL
PBMC of patient IND 535
  IFNγ: 0 pg/mL
  IL6: -6 pg/mL
  TNFα: -1 pg/mL
PBMC of patient IND 917
  IFNγ: -1 pg/mL
  IL6: -13 pg/mL
  TNFα: -4 pg/mL
PBMC of subject HD 001
  IFNγ: 4 pg/mL
  IL6: 18 pg/mL
  TNFα: -6 pg/mL
PBMC of subject HD 004
  IFNγ: 0 pg/mL
  IL6: -15 pg/mL
  TNFα: -1 pg/mL
PBMC of subject HD 005
  IFNγ: 5 pg/mL
  IL6: 16 pg/mL
  TNFα: -1 pg/mL
PBMC of subject HD 006
  IFNγ: 2 pg/mL
  IL6: -2 pg/mL
  TNFα: 2 pg/mL
PBMC of subject HD 008
  IFNγ: 1 pg/mL
  IL6: 31 pg/mL
  TNFα: 15 pg/mL
PBMC of subject HD 011
  IFNγ: 8 pg/mL
  IL6: 54 pg/mL
  TNFα: 10 pg/mL
PBMC of subject HD 340
  IFNγ: 2 pg/mL
  IL6: 11 pg/mL
  TNFα: 3 pg/mL
PBMC of subject HD 664
  IFNγ: -3 pg/mL
  IL6: 0 pg/mL
  TNFα: 0 pg/mL
